Key:
Assay type in all cases: binding
[1] = system: ABClonal #A2355, anti-H3K4me1; experiment: Histone peptide microarray, ABclonal A2355; details: Abclonal A2355 (anti-H3K4me1) hits
Protocol: (§1) Peptide microarrays were fabricated using an Aushon 2470 microarrayer and used as described ([Cornett et al., 2017]) with the following modifications. Protein and antibody hybridization steps were performed in buffer containing 25 mM HEPES pH 7.5, 100 mM NaCl, 0.5% BSA (w/v), and 0.1% NP-40. Slides were washed 3 × 5 min in PBS supplemented with 0.1% Tween-20 between each hybridization step. Antibodies used were primary anti-GST (Sigma #7781, 1:2,000 dilution) and an AlexaFluor 647-labeled secondary antibody (Life Technologies A-21245, 1:5,000 dilution). […] Full lists of peptides queried by array analysis are in Supplementary Table S2.

[2] = system: Millipore #07-449, anti-H3K27me3; experiment: Histone peptide microarray, Millipore 07-449; details: Millipore 07-449 (anti-H3K27me3) hits, average signal per peptide
[3] = system: Active Motif #39161, anti-H3K9me3; experiment: Histone peptide microarray, Active Motif 39161; details: Active Motif 39161 (anti-H3K9me3) hits
CST 9733 (anti-H3K27me3) = experiment: Histone peptide microarray, CST 9733; details: histone peptide array signal normalized to the highest peptide average per subarray, hits; CST 9733 LOT:14 dilution 1:5,000
53BP1 TTD = experiment: Histone peptide microarray, 53BP1 TTD; details: 53BP1 TTD hits, average signal per peptide
How it was run: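 Binding of protein or antibody to arrayed histone peptides read by AlexaFluor 647 fluorescence, with anti-GST primary (1:2,000) and labelled secondary (1:5,000) for GST-fused domain. Hybridisations in HEPES pH 7.5 buffer with 100 mM NaCl, 0.5% BSA and 0.1% NP-40; triple PBS-Tween washes between steps.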

[4] = system: Abcam #ab8895, anti-H3K4me1; experiment: Histone peptide microarray, Abcam ab8895; details: Abcam ab8895 (anti-H3K4me1) hits, average signal per peptide
CDYL2 chromo = target: T1, CDYL2 chromo (Homo sapiens, UniProt Q8N8U2); experiment: Histone peptide microarray, CDYL2 chromo; details: normalized histone peptide array signal, hits; hybridization with 1 M CDYL2 chromo (so in the source); two subarrays
T1 construct: 1-75; made in house; host or cells: E. coli BL21
T1 sequence (Q8N8U2 1-75): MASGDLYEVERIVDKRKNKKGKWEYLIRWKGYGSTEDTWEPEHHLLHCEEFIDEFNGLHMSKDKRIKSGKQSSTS
Protocol: as §1

MPP8 chromo = target: T2, MPP8 chromo (Homo sapiens, UniProt Q99549); experiment: Histone peptide microarray, MPP8 chromo; details: normalized histone peptide array signal, hits; hybridization with 1 M MPP8 chromo (so in the source); two subarrays
T2 construct: 50-118; made in house; host or cells: E. coli BL21
T2 sequence (Q99549 50-118): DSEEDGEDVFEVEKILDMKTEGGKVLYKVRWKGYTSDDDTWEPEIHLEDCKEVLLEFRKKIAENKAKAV
Protocol: as §1

Substance	Avg Signal [1]	Avg Signal [2]	Avg Signal [3]	Avg Signal (CST 9733 (anti-H3K27me3))	Avg Signal (53BP1 TTD)	Avg Signal [4]	Avg Signal (CDYL2 chromo)	Avg Signal (MPP8 chromo)
ACitTK(Me2)QTARKSTGGKAPRKQL-K(Biot)-NH2 [H3.1Cit2K4me2]	0.3053	0.002853	2.176e-5	0.0001108	0.6324	0.2048	–	–
ACitTK(Me3)QTARK(Ac)STGGK(Ac)APRK(Ac)QL-K(Biot)-NH2 [H3.1Cit2K4me3K9acK14acK18ac]	0.0002223	0.0318	0.03654	0.00661	0.1358	–	–	–
AGGK(Ac)AGK(Ac)DSGK(Ac)AKAKAVSR-Peg-Biot [H2A.Z.2K4acK7acK11ac]	–	0.003296	0.02451	–	–	–	0.04723	–
AR(Me2a)TK(Me3)QTARK(Ac)STGGK(Ac)APRK(Ac)QL-K(Biot)-NH2 [H3.1R2me2aK4me3K9acK14acK18ac]	0.01872	0.02578	0.01091	0.007631	0.02297	0.04451	–	–
AR(Me2s)TK(Me2)QTARKSTGGKAPRKQL-K(Biot)-NH2 [H3.1R2me2sK4me2]	0.3527	–	–	0.003211	0.2755	0.2778	–	–
AR(Me)TK(Me2)QTARKSTGGKAPRKQL-K(Biot)-NH2 [H3.1R2me1K4me2]	0.4048	–	0.0007938	0.0008431	0.4867	0.2976	–	–
ARTAQTARK(Me2)STGGKA-Peg-Biot [Peptide H3.1K4AK9me2]	–	–	0.007885	–	–	–	–	0.07994
ARTK(Ac)QTARK(Me2)STGGK(Ac)APRK(Ac)QL-K(Biot)-NH2 [H3.1K4acK9me2K14acK18ac]	–	0.005667	–	3.787e-5	0.5858	0.0002166	–	0.2405
ARTK(Ac)QTARK(Me)STGGK(Ac)APRK(Ac)QL-K(Biot)-NH2 [H3.1K4acK9me1K14acK18ac]	–	0.004673	–	–	0.1278	0.5059	–	0.07749
ARTK(Me2)QpTARK(Ac)STGGK(Ac)APRK(Ac)QL-K(Biot)-NH2 [H3.1K4me2T6pK9acK14acK18ac]	0.3869	–	–	0.0006457	0.3467	0.2093	–	–
ARTK(Me2)QpTARKSTGGKAPRKQL-K(Biot)-NH2 [Peptide H3.1K4me2T6p]	0.3499	–	0.000965	0.0001379	0.2267	0.1917	–	–
ARTK(Me3)QTARK(Ac)pSTGGK(Ac)APRK(Ac)QL-K(Biot)-NH2 [H3.1K4me3K9acS10pK14acK18ac]	0.02489	0.01919	0.01388	0.002027	0.1468	–	–	–
ARTK(Me3)QTARKSTGGKAPRK(Ac)QL-K(Biot)-NH2 [H3.1K4me3K18ac]	0.001684	0.03479	0.09175	0.006885	0.08895	0.01446	–	–
ARTKQTAR(Me2a)K(Me)STGGKAPRKQL-K(Biot)-NH2 [H3.1R8me2aK9me1]	0.006716	–	0.00542	–	0.1501	0.513	–	0.4258
ARTKQTAR(Me2s)K(Me)STGGKAPRKQL-K(Biot)-NH2 [H3.1R8me2sK9me1]	–	–	0.003577	0.01277	0.2791	0.3635	–	0.1744
ARTKQTARK(Me3)pSTGGKAPRKQL-K(Biot)-NH2 [H3.1K9me3S10p]	–	0.03312	0.1411	–	0.1329	0.1409	–	0.04961
ARTKQTARK(Me)STGGKAPRKQL-K(Biot)-NH2 [Peptide H3.1K9me1]	–	0.001651	0.000221	–	0.2555	0.4772	–	0.4905
Ac-APRKQLATK(Me3)AARKSAPATGG-Peg-K(Biot)-NH2 [Peptide H3.1K23me3]	–	0.005165	0.01355	5.2822e-5	–	–	–	0.09452
Ac-APRKQLATKAARK(Me2)SAPSTGG-Peg-Biot [Peptide H3.3K27me2]	–	0.003304	–	0.0115	0.3374	0.0005313	0.08888	–
Ac-APRKQLATKAARK(Me3)SAPSTGG-Peg-Biot [Peptide H3.3K27me3]	–	0.2205	0.01689	1	0.04567	–	0.1275	–
Ac-GKGGAKRHRK(Me2)VLRDNIQ-Peg-Biot [Peptide H4K20me2]	0.04168	–	0.01321	0.000354	1	0.06608	–	–
Ac-SGRGK(Me)GGK(Ac)GLGK(Me)GGAKRHRKVLR-Peg-Biot [H4K5me1K8acK12me1]	0.01549	0.001936	0.03017	–	–	0.02853	–	0.009322
Ac-SGRGK(Me)GGK(Me)GLGK(Me)GGAKRHRKVLR-Peg-Biot [H4K5me1K8me1K12me1]	0.1176	–	0.004623	–	–	0.06188	0.4707	–
Ac-SGRGQGGQGLGK(Ac)GGAQRHRQVLR-Peg-Biot [H4K12acK5QK8QK16QK20Q]	0.0006964	0.0006189	0.02202	0.0003661	–	0.02356	–	–
Ac-pSGR(Me2a)GK(Ac)QGGKARAKAKTR-Peg-Biot [H2AS1pR3me2aK5ac]	0.05587	–	0.0003455	0.0004026	0.1102	0.08644	–	–
KSAPSpTGGVK(Me)KPHRYRPGT-G-K(Biot)-NH2 [H3.3K36meT32p]	0.00279	0.0077	0.00231	0.002226	–	0.005437	–	–

From PMC7160673, “A Degenerate Peptide Library Approach to Reveal Sequence Determinants of Methyllysine-Driven Protein Interactions” (Frontiers in Cell and Developmental Biology, 2020)
